Measurements from patent US8158607B2, “Crystalline form of lamivudine” (Lupin Limited, priority 2006, dated 2012).

Tests used:
[1] = Bulk density and tap density of crystal forms; type: physicochemical
Text: The novel crystalline hemihydrate form (form III) of Lamivudine has better flow property and bulk density, which are important parameters for formulation (Table I). [table]

[2] = Flow property (angle of repose); type: physicochemical; conditions: procedure of Lachman et al., page 317
[3] = Storage stability at 40±2° C. RH 75±5%; type: physicochemical; conditions: stored at 40±2° C. RH 75±5%
[4] = Polymorphic stability during milling; type: physicochemical
Bioavailability = type: in vivo; conditions: compared with known forms
[5] = Tablet dissolution in 0.1 N HCl, paddle; type: physicochemical; conditions: combination tablet, 50 rpm, 900 ml
[6] = Polymorphic stability when slurried in water; type: physicochemical; conditions: slurried in water at ambient temperature for 24 to 48 hours
Procedure: A suspension of the Lamivudine form-II (5.0 gm) in water (5.0 ml) was stirred at 25° C. for 48 hours. The suspension was cooled and stirred at 10° C. for one hour. The product was filtered and then dried under vacuum at 45° C. for 24 hours. Yield=4.5 gms
A suspension of the Lamivudine form-I (2.0 gm) in water (2.0 ml) was stirred at 25° C. for 24 hours. The suspension was cooled and stirred at 10° C. for one hour. The product was filtered and then dried under vacuum at 45° C. for 24 hours. Yield=1.6 gms

[7] = background, U.S. Pat. No. 5,905,082; cited from earlier work

| SMILES | Bulk Density [1] [gm/cc] | Tap Density [1] [gm/cc] | Flow Property (Angle of Repose) [2] [°] | Stability on storage [3] | Change in crystal structure during milling [4] | Bioavailability (Bioavailability) | Dissolution (%) ([5]; 5 minutes) | Dissolution (%) ([5]; 10 minutes) | Dissolution (%) ([5]; 20 minutes) | Dissolution (%) ([5]; 30 minutes) | Dissolution (%) ([5]; 40 minutes) | Change of crystal form when slurried in water [6] | Change of crystal form during milling and formulation operation [7] |
| --- | --- | --- | --- | --- | --- | --- | --- | --- | --- | --- | --- | --- | --- |
| Nc1cc[n+](C2CSC(CO)O2)c(=O)[nH]1 (stereo not drawn) [Form III, (2R-cis)-4-amino-1-[2-(hydroxymethyl)-1,3-oxathiolan-5-yl]-2(1H)-pyrimidinone] | 0.64 | 0.83 | 32.00 | stable for more than three months | does not undergo any change in crystal structure during milling | comparable bioavailability | – | – | – | – | – | – | – |
| Nc1cc[n+](C2CSC(CO)O2)c(=O)[nH]1 (stereo not drawn) [Lamivudine, (2R-cis)-4-amino-1-[2-(hydroxymethyl)-1,3-oxathiolan-5-yl]-2(1H)-pyrimidinone] | – | – | – | – | – | – | 80.9 | 86.2 | 92.0 | 96.0 | 96.7 | – | – |
| Nc1cc[n+](C2CSC(CO)O2)c(=O)[nH]1 (stereo not drawn) [Form II, (2R-cis)-4-amino-1-[2-(hydroxymethyl)-1,3-oxathiolan-5-yl]-2(1H)-pyrimidinone] | 0.38 | 0.55 | 32.00 | – | – | – | – | – | – | – | – | get converted to Form III | – |
| Cc1cn([C@H]2C[C@H](N=[N+]=[N-])[C@@H](CO)O2)c(=O)[nH]c1=O [Zidovudine] | – | – | – | – | – | – | 81.1 | 87.8 | 95.2 | 100.4 | 101.5 | – | – |
| Nc1cc[n+](C2CSC(CO)O2)c(=O)[nH]1 (stereo not drawn) [Form I, (2R-cis)-4-amino-1-[2-(hydroxymethyl)-1,3-oxathiolan-5-yl]-2(1H)-pyrimidinone] | 0.46 | 0.60 | 33.66 | – | – | – | – | – | – | – | – | get converted to Form III | converts to form II |
